The text below walks through data of patent publication US20140088114A1, “FUSED BICYCLIC KINASE INHIBITORS” (OSI Pharmaceuticals ,LLC, priority 2011, published 2014).

In this test the target is T1, RON (Homo sapiens, UniProt Q04912).
T1 construct: expressed in transfected cells; host or cells: HeLa
T1 sequence (Q04912 913-1400 limits assumed): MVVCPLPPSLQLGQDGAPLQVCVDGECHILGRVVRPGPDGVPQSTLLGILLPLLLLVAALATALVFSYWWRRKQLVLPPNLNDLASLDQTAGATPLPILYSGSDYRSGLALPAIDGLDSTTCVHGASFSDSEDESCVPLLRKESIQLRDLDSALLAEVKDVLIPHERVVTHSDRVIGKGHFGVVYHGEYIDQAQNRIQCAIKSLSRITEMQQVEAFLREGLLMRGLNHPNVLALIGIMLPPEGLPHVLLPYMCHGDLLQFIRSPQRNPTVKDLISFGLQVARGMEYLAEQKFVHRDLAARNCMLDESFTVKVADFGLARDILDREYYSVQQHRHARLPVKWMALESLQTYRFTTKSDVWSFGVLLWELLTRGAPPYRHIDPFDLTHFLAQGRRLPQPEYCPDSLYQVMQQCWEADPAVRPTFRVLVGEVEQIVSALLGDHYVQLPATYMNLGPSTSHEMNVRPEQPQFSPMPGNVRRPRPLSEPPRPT
In words: sfRON cell mechanistic assay (HeLa), phosphorylated RON. The format is cell-based. The protocol:
The cellular activity of the compounds of the present invention against RON may be determined by the following procedure. HeLa cells were plated in Falcon 3072 96-well plates in growth media (DMEM, 10% FBS, 1% L-glutamine) at a density of 10000 cells/well and incubated at 37° C., 5% CO2 overnight. The following day, cells were transfected with 0.2 μg sfRON-pcDNA plasmid DNA with 0.5 μL Lipofectamine2000 per well in the presence of 50 μL OPTI-MEM, incubated at 37° C., 5% CO2 overnight. Costar 3915 96-well assay plates were coated with rabbit Anti-RON antibody at 2.0 μg/mL, sealed, and incubated overnight at 4° C. On the third day, coated plates were washed with PBS and blocked with 3% BSA. For the sfRON transfected cells, one-tenth volume of a 10× concentration of compounds was added to the wells in a 6-point dilution series. The dilution series was composed of an initial 1:5 dilution of a 10 mM DMSO stock solution of compound in DMSO, followed by a 1:10 dilution in growth media, for a final DMSO concentration on cells of 0.5%. Control wells were treated with 0.5% DMSO. The typical range of dilution was 10 μM to 3 nM. Once compound was added to the cells, plates were incubated for four hours at 37° C., 5% CO2. Plates were then washed in PBS, and lysed in triton-based lysis buffer. Lysates were transferred to the blocked capture plates. The phosphorylated RON levels were measured by incubating with a Goat polyclonal antibody against phosphorylated RON ([pYpY1238/1239]) followed by an anti-Goat antibody conjugated to HRP. Signal was measured on a Wallac Victor plate reader with luminance. The DMSO signal of the control wells was defined as 100% and the percent of inhibition of phosphorylated RON was expressed as percent of control. IC50 values were determined from the percent of control data using a standard four-parameter model.
The IC50 values of exemplary compounds of the present invention determined in a sfRON cell mechanistic assay using the HeLa cell line according to the procedures described herein in at least duplicate experiments are abbreviated as follows and are shown in Table 3: A, IC50≦0.03 μM; B, 0.03 μM<IC50≦0.1 μM; C, 0.1 μM<IC50≦1 μM; D, 1 μM<IC50≦3 μM; ND, not determined. The Example # of Table 3 corresponds to the compound example number as illustrated in the Examples section.

[1] abbreviates: Table 6: comparison X = C1-3haloalkyl vs. X = C1-3alkyl, read-out: sfRON cell mechanistic.
[2] abbreviates: sfRON transfected HeLa cells, four hours incubation, inhibition of phosphorylated RON, at least duplicate experiments, read-out: sfRON mech IC50.

Like-named read-outs stand apart in the source and are kept apart here.

In the case of `Cn1cc(-c2cnc3[nH]cc(C(CF)c4c(Cl)ccc(F)c4Cl)c3c2)cn1` (centres unmarked) [Example 1, 3-[1-(2,6-Dichloro-3-fluorophenyl)-2-fluoroethyl]-5-(1-methyl-1H-pyrazol-4-yl)-1H-pyrrolo[2,3-b]pyridine], the IC50 fell in the range of 100 to 1000 nM under setting [1] and 100 to 1000 nM under setting [2].

On to `COc1ccc(F)c(Cl)c1[C@@H](CF)c1c[nH]c2ncc(-c3cnn([C@H]4CC[C@H](O)CC4)c3)cc12` [Example 3, trans-4-(4-{3-[(1S)-1-(2-chloro-3-fluoro-6-methoxyphenyl)-2-fluoroethyl]-1H-pyrrolo[2,3-b]pyridin-5-yl}-1H-pyrazol-1-yl)cyclohexanol], for which the IC50 fell in the range of 30 to 100 nM under setting [1] and 30 to 100 nM under setting [2].

Take `O[C@H]1CC[C@H](n2cc(-c3cnc4[nH]cc([C@@H](CF)c5c(OC(F)F)ccc(F)c5Cl)c4c3)cn2)CC1` [Example 4, trans-4-[4-(3-{(1R)-1-[2-Chloro-6-(difluoromethoxy)-3-fluorophenyl]-2-fluoroethyl}-1H-pyrrolo[2,3-b]pyridin-5-yl)-1H-pyrazol-1-yl]cyclohexanol]: the IC50 reads like this: under setting [1], 30 to 100 nM; under setting [2], 30 to 100 nM.

With `O[C@H]1CC[C@H](n2cc(-c3cnc4[nH]cc([C@H](CF)c5c(OC(F)F)ccc(F)c5Cl)c4c3)cn2)CC1` [Example 5, trans-4-[4-(3-{(1S)-1-[2-Chloro-6-(difluoromethoxy)-3-fluorophenyl]-2-fluoroethyl}-1H-pyrrolo[2,3-b]pyridin-5-yl)-1H-pyrazol-1-yl]cyclohexanol], the IC50 was ≤ 30 nM under setting [1] and ≤ 30 nM under setting [2].
